# Data reported in US3976545A, “1,2,4-Triazol E-3-carboxamides as antiviral agents” (ICN Pharmaceuticals, Inc., priority 1975, dated 1976).
# Read-outs that look alike come from different tables or passages of the source.
# Columns and labels:
# [1] = test system: Type 1 Herpes; assay: CPE inhibition in KB cells, Type 1 Herpes; assay type: cell-based; details: VR >0.5 significant, <0.5 slight activity
# Procedure: (§1) They were tested for activity using the virus-induced cytopathogenic effect (CPE) method of Sidwell, et al., (Applied Microbiology 22:797-801, 1971). Briefly, the CPE procedure includes the dissolution of the antiviral agent in a cell culture medium consisting of vitamins, amino acids, serum, buffer, penicillin, streptomycin and indicator dye in water. The virus suspended in the cell culture medium was added to an established monolayer of KB cells, and an equal volume of the antiviral agent was then added within 15 minutes. The infected treated cells were graded following microscopic examination. Controls for each experiment include cell controls (cells and cell culture medium only), virus controls (cells and virus and cell culture medium) and toxicity controls (cells and chemical and cell culture medium).
# (§2) The virus rating (VR) system of Sidwell et al, described in Applied Microbiology, supra, was used to evaluate the degree of significance of CPE inhibition.
# [2] = test system: Type 2 Herpes; assay: CPE inhibition in KB cells, Type 2 Herpes; assay type: cell-based; details: VR >0.5 significant, <0.5 slight activity
# Procedure: as §1, §2
# [3] = test system: Type 13 Rhino; assay: CPE inhibition in KB cells, Type 13 Rhino; assay type: cell-based; details: VR >0.5 significant, <0.5 slight activity
# Procedure: as §1, §2
# [4] = test system: Measles; assay: Measles virus plaque inhibition (agar overlay); assay type: cell-based; details: Measles morbillivirus, 96 h, day 4; for inhibition at 20 µg/mL: 20 μg/ml; for inhibition at 100 µg/mL: 100 μg/ml; for inhibition at 500 µg/mL: 500 μg/ml
# Text: In experiments with measles virus, the above method was altered in that the infected cells were covered with an agar-serum-bicarbonate overlay containing the antiviral compounds so that viral plaques could be discerned. These plaques were strained with neutral red dye on day 4 and counted, with any reduction in plaque number resulting from exposure to the antiviral compound determined. The methodology for the experiment is as described by Wear et al (Exptl. and Molecular Pathol. 9:405-417, 1968).
# [5] = test system: Vaccinia; assay type: cell-based; details: KB cells, VR >0.5 significant, <0.5 slight activity
# [6] = test system: Type 56 Rhino; assay: CPE inhibition in KB cells, Type 56 Rhino; assay type: cell-based; details: VR >0.5 significant, <0.5 slight activity
# Procedure: as §1, §2
# [7] = test system: Type 8 Rhino; assay: CPE inhibition in KB cells, Type 8 Rhino; assay type: cell-based; details: VR >0.5 significant, <0.5 slight activity
# Procedure: as §1, §2
# [8] = test system: Type 1A Rhino; assay: CPE inhibition in KB cells, Type 1A Rhino; assay type: cell-based; details: VR >0.5 significant, <0.5 slight activity
# Procedure: as §1, §2
# [9] = test system: Type 3 Parainfluenza; assay: CPE inhibition in KB cells, Type 3 Parainfluenza; assay type: cell-based; details: VR >0.5 significant, <0.5 slight activity
# Procedure: as §1, §2
# [10] = test system: mice; details: for MST / Survivors Per Total / Average Lung Consolidation / HA Titer Per ml: Drug + MEM; for Average Lung Consolidation: Day 25, scale of 0-4; for HA Titer Per ml: lung homogenates Day 25
# [11] = test system: influenza A2 virus; assay type: in vivo, Female Swiss Mice; details: for Average Lung Consolidation: Day 25, scale of 0-4; for effectiveness against influenza virus: summary in words
# [12] = in vitro; details: human, kb cells
# [13] = target: T1, Nucleoside Phosphorylase (Bos taurus, UniProt P55859); assay: Nucleoside Phosphorylase assay (conversion of 1,2,4-triazole-3-carboxamide to its 1-β-D-ribofuranosyl nucleoside); assay type: biochemical, calf (spleen); details: pH 7.4, 25°, 5 minutes
# T1 construct: purchased Sigma Chemical Co., St. Louis, Mo; host or cells: calf spleen
# T1 sequence (P55859 1-289): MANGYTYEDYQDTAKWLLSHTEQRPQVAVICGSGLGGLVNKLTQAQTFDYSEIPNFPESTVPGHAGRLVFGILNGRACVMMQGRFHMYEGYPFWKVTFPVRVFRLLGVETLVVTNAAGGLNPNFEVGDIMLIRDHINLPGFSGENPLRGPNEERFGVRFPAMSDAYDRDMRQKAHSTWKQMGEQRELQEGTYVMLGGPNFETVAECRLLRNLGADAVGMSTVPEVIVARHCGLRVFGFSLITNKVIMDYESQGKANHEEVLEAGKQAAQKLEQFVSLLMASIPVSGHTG
# Procedure: 1,2,4-Triazole-3-carboxamide may be converted to 1-β-D-ribofuranosyl- 1,2,4-triazole-3-carboxamide by reaction with the enzyme Nucleoside Phosphorylase at a pH within the range of about 5 to about 9, preferably 7 to 8, at an enzyme concentration of from about 0.015 to about 0.75 mg/ml, preferably about 0.15 mg/ml, and a temperature within the range of about 0° to about 50°C, with the preferred temperature being approximately 25° to about 35°C. Satisfactory results have been obtained when the triazole base is present in a concentration greater than 5×10^^-5 M and ribose-1-phosphate is present at a concentration greater than 2×10^^-5 M. Generally about 0.1 to about 2 hours, preferably about 0.5 to about 1 hour, are required for the reaction. The source of the enzyme may be animal, tissue, or bacteria. The principal bacterial sources are E. coli and […], while a variety of animal sources exist, including beef spleen, rat liver, calf liver, calf thymus, beef liver, monkey brain, horse liver, calf spleen, human erythrocytes, fish skin, and fish muscle. […]
# The samples were incubated at 25° for 5 minutes and then frozen in dry ice - isopropanol to stop the reaction. […] Areas of the chromatograms coinciding with 1,2,4-triazole-3-carboxamide were removed and counted to determine the percent of conversion of 1,2,4 -triazole-3-carboxamide to 1-β-D-ribofuranosyl-1,2,4-triazole-3-carboxamide.
# [14] = Compound 2, 250 mg/kg/day ip, schedule 3
# [15] = Compound 2, 500 mg/kg/day ip, schedule 3
# [16] = Compound 2, 1000 mg/kg/day ip, schedule 2
# [17] = Compound 2, 75 mg/kg/day ip, Drug + Virus, schedule 1
# [18] = Compound 2, 250 mg/kg/day ip, Drug + Virus, schedule 3
# [19] = Compound 2, 500 mg/kg/day ip, Drug + Virus, schedule 3
# [20] = Compound 2, 1000 mg/kg/day ip, Drug + Virus, schedule 2
# [21] = Compound 1, 250 mg/kg/day ip, schedule 1
# [22] = Compound 1, 500 mg/kg/day ip, schedule 1
# [23] = Compound 1, 1000 mg/kg/day ip, schedule 1
# [24] = Compound 1, 250 mg/kg/day ip, Drug + Virus, schedule 1
# [25] = Compound 1, 500 mg/kg/day ip, Drug + Virus, schedule 1
# [26] = Compound 1, 1000 mg/kg/day ip, Drug + Virus, schedule 1
smiles,measurement,setting,value
"NC(=O)c1ncn([C@@H]2O[C@H](CO)[C@@H](O)[C@H]2O)n1 [Compound 3, 1-β-D-Ribofuranosyl-1,2,4-triazole-3-carboxamide]",Virus Rating,[1],1.0-1.5
same,Virus Rating,[2],1.3
same,Virus Rating,[3],0.5
same,inhibition at 20 µg/mL,[4],30%
same,inhibition at 100 µg/mL,[4],94%
same,inhibition at 500 µg/mL,[4],100%
same,Virus Rating,[5],0.9-1.0
same,Virus Rating,[6],0.9
same,Virus Rating,[7],0.8
same,Virus Rating,[8],0.6
same,Virus Rating,[9],0.6-1.0
"NC(=S)c1nc[nH]n1 [Compound 2, 1,2,4-Triazole-3-thiocarboxamide]",Virus Rating,[1],0.4-0.8
same,Virus Rating,[2],0.3
same,MST,[10]; [14],> 21.0 days
same,Survivors Per Total,[10]; [14],5/5
same,Average Lung Consolidation,[10]; [14],0.5
same,HA Titer Per ml,[10]; [14],0
same,MST,[10]; [15],9.0 days
same,Survivors Per Total,[10]; [15],4/5
same,Average Lung Consolidation,[10]; [15],2.0
same,HA Titer Per ml,[10]; [15],0
same,MST,[10]; [16],4.2 days
same,Survivors Per Total,[10]; [16],0/5
same,toxicity to mice,"[10]; concentrations as low as 250 mg/kg/day, intraperitoneally, same treatment regimen (twice daily for 9 days)",moderately toxic as evidenced by weight loss and death
same,MST,[11]; [17],> 21.0 days
same,Survivors Per Total,"[11]; Compound 2, 75 mg/kg/day ip, Drug + Virus, schedule 1 (P<0.001)",10/10
same,Average Lung Consolidation,[11]; [17],1.0
same,MST,[11]; [18],9.2 days
same,Survivors Per Total,"[11]; Compound 2, 250 mg/kg/day ip, Drug + Virus, schedule 3 (P<0.2)",6/10
same,Average Lung Consolidation,[11]; [18],3.6
same,MST,[11]; [19],7.6 days
same,Survivors Per Total,"[11]; Compound 2, 500 mg/kg/day ip, Drug + Virus, schedule 3 (P>0.3)",5/10
same,Average Lung Consolidation,[11]; [19],2.2
same,MST,[11]; [20],8.3 days
same,Survivors Per Total,"[11]; Compound 2, 1000 mg/kg/day ip, Drug + Virus, schedule 2 (P>0.3)",3/10
same,Average Lung Consolidation,[11]; [20],3.7
same,effectiveness against influenza virus,[11],particularly effective against influenza virus
same,MCC,[12],≥ 1 µg/mL
same,Virus Rating,[3],0.4
same,inhibition at 20 µg/mL,[4],5%
same,inhibition at 100 µg/mL,[4],98%
same,inhibition at 500 µg/mL,[4],100%
same,Virus Rating,[5],0.5
same,Virus Rating,[6],0.4
same,Virus Rating,[7],0.3
same,Virus Rating,[8],0.2-0.4
same,Virus Rating,[9],0.2-0.4
"NC(=O)c1nc[nH]n1 [Compound 1, 1,2,4-Triazole-3-carboxamide]",Virus Rating,[1],0.6-0.9
same,Virus Rating,[2],0.4
same,MST,[10]; [21],> 21.0 days
same,Survivors Per Total,[10]; [21],5/5
same,MST,[10]; [22],> 21.0 days
same,Survivors Per Total,[10]; [22],5/5
same,MST,[10]; [23],> 21 days
same,Survivors Per Total,[10]; [23],5/5
same,toxicity to mice,"[10]; concentrations as high as 1000 mg/kg/day, intraperitoneally twice daily for 9 days",nontoxic
same,MST,[11]; [24],17.5 days
same,Survivors Per Total,"[11]; Compound 1, 250 mg/kg/day ip, Drug + Virus, schedule 1 (P<0.05)",8/10
same,Average Lung Consolidation,[11]; [24],1.4
same,MST,[11]; [25],12.0 days
same,Survivors Per Total,"[11]; Compound 1, 500 mg/kg/day ip, Drug + Virus, schedule 1 (P<0.1)",7/10
same,Average Lung Consolidation,[11]; [25],2.5
same,MST,[11]; [26],15 days
same,Survivors Per Total,"[11]; Compound 1, 1000 mg/kg/day ip, Drug + Virus, schedule 1 (P<0.05)",8/10
same,Average Lung Consolidation,[11]; [26],2.0
same,HA Titer Per ml,"[11]; Compound 1, 1000 mg/kg/day ip, Drug + Virus, schedule 1, lung homogenates Day 25",1.3
same,effectiveness against influenza virus,[11],particularly effective against influenza virus
same,% Conversion,[13]; - enzyme,0.8%
same,% Conversion,"[13]; - ribose-1-P, + enzyme, 80μg",1.1%
same,MCC,[12],32 to 1000 µg/mL
same,Virus Rating,[3],0.3
same,inhibition at 20 µg/mL,[4],34%
same,inhibition at 100 µg/mL,[4],97%
same,inhibition at 500 µg/mL,[4],99%
same,Virus Rating,[5],0.8
same,Virus Rating,[6],0.3
same,Virus Rating,[7],0.2
same,Virus Rating,[8],0.4-0.5
same,Virus Rating,[9],0.5-0.7
